Test system: mouse model of hepatic steatosis
Experiment: HFD-induced hepatic steatosis (NAFLD) mouse model treated with UCB9608
Assay type: in vivo, mice
Description: Male mice were used for NAFLD induction via feeding on HFD. ROSA26-LSL-spCas9 mice were injected with AAV-U6-Cu/7 gRNAs-TBG-Cre and AAV-U6-Fbxw8 gRNAs-TBG-Cre virus pools at a dose of 3×10^11 genome copies/mouse and fed in HFD for 12 weeks and livers were harvested after 6 hours fasting. To study PI4KB in NAFLD progression, male ROSA26-LSL-spCas9 mice were fed in HFD for 12 weeks to induce fatty liver before induction of hepatocyte specific depletion of PI4KB via intravenous administration of AAV8. After another 8 weeks, mice were dissected to harvest liver after 6 hours fasting. Likewise, male C57BL/6N wild-type mice and liver specific Atgl knockout mice (AtglLKO) were challenged with HFD for 12 weeks to induce fatty liver prior to administration of UCB9608 mixed in HFD (5 mg/kg) for another 8 weeks. Then the mice were dissected to harvest tissues and sample blood after 6 hours fasting Atgl floxed mice (The Jackson Lab strain) were crossed with Albumin-Cre (The Jackson Lab strain) and Adip-CreERT2 strains to obtain Alb-Atgfl^fl/fl and AdipcreERT2-Atgl^fl/fl mice (Sitnick,M.T. et al, Diabetes 62, (2013)), which deplete ATGL protein in the liver and the adipose depots (induced after tamoxifen gavage), respectively. […]
Adipose depots, liver pieces, differentiated iBAs, HepG2, HEK293T and HEK293-AAV cell types were homogenized in RIPA buffer (50 mM Tris-HCl pH 7.4, 150 mM NaCl, 2 mM EDTA, 1.0% Triton X100, 0.5% sodium deoxycholate) with protease inhibitors (Complete, Roche) and phosphatase inhibitors (Halt phosphatase inhibitor cocktail, ThermoFisher). […] The concentration of WCE was determined by DC Protein Assay (Bio-Rad). […]
Plasma collected from mice under different conditions was used to determine levels of lipolysis and liver injury. FFA levels were measured via NEFA assay kit (Wako NEFA kit). TG levels were determined via TG assay kit (Roche Trig/GB reagent). […] The absorbance was monitored using Synergy Gen5 Platereader.
Weight of liver pieces (50-100 mg) was recorded before homogenization by 1 mL isopropanol per 50 mg tissue. […]

Compound: COc1ccc(NC(=O)N2CCN(c3nc(N)nc4c3cnn4C)[C@@H](C)C2)c(C)c1 [UCB9608]
- hepatic steatosis (hepatic TG levels) (HFD 12 weeks, then UCB9608 in HFD (5 mg/kg) 8 weeks, requires ATGL in the liver): substantially attenuated
- ATGL protein levels in the iBAT, gWAT and liver (UCB9608- vs DMSO-treated HFD mice): significantly greater
- plasma FFA levels (wild-type mice, HFD 12 weeks, then UCB9608 in HFD (5 mg/kg) 8 weeks, vs DMSO): significantly increased
